Results taken from publication PMC9960821, “Evaluation of Rhenium and Technetium-99m Complexes Bearing Quinazoline Derivatives as Potential EGFR Agents” (Molecules, 2023).

Experiments:
[1] = Lipophilicity, shake-flask distribution coefficient; assay type: physicochemical; details: n-octanol/0.1 M phosphate buffer pH 7.4
Protocol: The pharmacokinetic profile of the studied compounds could be affected by their lipophilicity, expressed as the logarithm of the distribution coefficient (log Do/w). The lipophilicity of complexes 5b and 7b was determined in physiological conditions (n-octanol/0.1 M phosphate buffer pH 7.4). […] The presence of the pyridine ring in the chemical structure of complex […] increases the log D7.4 value, as expected.
The distribution coefficient of the 5b and 7b complexes was determined with the shake-flask method. The RP-HPLC isolated ^99mTc complexes (20 μL, ~75 kBq) were mixed with 2 mL of 1-octanol and 2 mL of phosphate buffer solution (PBS, 0.1 M, pH 7.4) in a centrifuge tube. The mixture was vortexed at room temperature for 2 min and centrifuged at 5000 rpm for 10 min. The radioactivity of each phase (200 μL) was counted in a gamma counter. The distribution coefficient was calculated by dividing the cpm/mL in the 1-octanol phase by those in the buffer, and the results were expressed as logD7.4. Each experiment was run in triplicate.

[2] = Cysteine and histidine challenge of 99mTc complexes (RP-HPLC); assay type: physicochemical
Protocol: (§1) The stability of complexes 5b and 7b was studied in their reaction mixture and after isolation by HPLC for up to 24 h.
Cysteine and histidine challenge: Histidine (100 µL, 1 × 10^−2 M) or cysteine (100 µL, 1 × 10^−2 M) solution in 0.1 M PBS was mixed with 100 µL (50–120 MBq) of the RP-HPLC isolated ^99mTc complexes in 0.1 M PBS (800 µL). The mixtures were incubated at 37 °C for up to 24 h and analyzed by RP-HPLC at 1, 6, and 24 h intervals.

[3] = Stability of 99mTc complexes in reaction mixture and after isolation in PBS (RP-HPLC); assay type: physicochemical
Protocol: as §1
Stability of ^99mTc complexes in the reaction mixture: Samples of the ^99mTc complexes’ reaction mixture were stored at room temperature for up to 24 h. At 1, 6, and 24 h intervals, 100 μL of each sample was removed and analyzed by RP-HPLC.
Stability of isolated ^99mTc complexes: Purification and isolation of 5b and 7b complexes were performed by injection of the reaction mixture into RP-HPLC and isolation of the eluted compounds’ peaks, corresponding to the elution time of each complex. Followingly, 0.1 M PBS buffer solution (900 µL) was added to a vial containing 100 µL (50–120 MBq) of the isolated technetium-99m complex. The sample was incubated at 37 °C for up to 24 h and analyzed by RP-HPLC at 1, 6, and 24 h intervals.

EGFR = biological target: T1, EGFR (Homo sapiens, UniProt P00533); assay: Inhibition of EGFR phosphorylation in intact A431 cells (immunoblotting); assay type: cell-based; details: 2 h compound then EGF 20 ng/mL 5 min, Western blot
T1 construct: by immunoblotting in intact A431 cells that overexpress EGFR; endogenous in cells; host or cells: A431 (human epidermoid vulvar carcinoma)
Protocol: Complex 5a was evaluated for its potency to inhibit EGFR phosphorylation in various concentrations by immunoblotting in intact A431 cells that overexpress EGFR (Figure 3). In addition, the percentage of EGFR phosphorylation was calculated, and a dose-response curve was performed (Figure 4).
Cell line. The in vitro biological studies were established using the human epidermoid vulvar carcinoma A431 cell line, which overexpresses EGFR. Cells were available in our laboratory from previous studies. Cells were maintained in high glucose D-MEM medium with L-glutamine (PAA Laboratories GmbH, Pasching, Austria) and supplemented with 10% fetal bovine serum (PAA Laboratories GmbH) and penicillin/streptomycin (PAA Laboratories GmbH) 100 UI/100 μg per mL, in 5% CO2 incubator at 37 °C.
The inhibition of EGFR phosphorylation was studied as described in the literature. A431 cells (5 × 10^5 cells/well) were seeded in 6-well plates and incubated for 24 h. Then, the medium was replaced with fresh medium without fetal bovine serum. […] Protein band quantification was performed using Image-J software, and the percentage of EGFR phosphorylation inhibition was calculated using GraphPad Prism 9.0 software.

T1 sequence (P00533 25-1210): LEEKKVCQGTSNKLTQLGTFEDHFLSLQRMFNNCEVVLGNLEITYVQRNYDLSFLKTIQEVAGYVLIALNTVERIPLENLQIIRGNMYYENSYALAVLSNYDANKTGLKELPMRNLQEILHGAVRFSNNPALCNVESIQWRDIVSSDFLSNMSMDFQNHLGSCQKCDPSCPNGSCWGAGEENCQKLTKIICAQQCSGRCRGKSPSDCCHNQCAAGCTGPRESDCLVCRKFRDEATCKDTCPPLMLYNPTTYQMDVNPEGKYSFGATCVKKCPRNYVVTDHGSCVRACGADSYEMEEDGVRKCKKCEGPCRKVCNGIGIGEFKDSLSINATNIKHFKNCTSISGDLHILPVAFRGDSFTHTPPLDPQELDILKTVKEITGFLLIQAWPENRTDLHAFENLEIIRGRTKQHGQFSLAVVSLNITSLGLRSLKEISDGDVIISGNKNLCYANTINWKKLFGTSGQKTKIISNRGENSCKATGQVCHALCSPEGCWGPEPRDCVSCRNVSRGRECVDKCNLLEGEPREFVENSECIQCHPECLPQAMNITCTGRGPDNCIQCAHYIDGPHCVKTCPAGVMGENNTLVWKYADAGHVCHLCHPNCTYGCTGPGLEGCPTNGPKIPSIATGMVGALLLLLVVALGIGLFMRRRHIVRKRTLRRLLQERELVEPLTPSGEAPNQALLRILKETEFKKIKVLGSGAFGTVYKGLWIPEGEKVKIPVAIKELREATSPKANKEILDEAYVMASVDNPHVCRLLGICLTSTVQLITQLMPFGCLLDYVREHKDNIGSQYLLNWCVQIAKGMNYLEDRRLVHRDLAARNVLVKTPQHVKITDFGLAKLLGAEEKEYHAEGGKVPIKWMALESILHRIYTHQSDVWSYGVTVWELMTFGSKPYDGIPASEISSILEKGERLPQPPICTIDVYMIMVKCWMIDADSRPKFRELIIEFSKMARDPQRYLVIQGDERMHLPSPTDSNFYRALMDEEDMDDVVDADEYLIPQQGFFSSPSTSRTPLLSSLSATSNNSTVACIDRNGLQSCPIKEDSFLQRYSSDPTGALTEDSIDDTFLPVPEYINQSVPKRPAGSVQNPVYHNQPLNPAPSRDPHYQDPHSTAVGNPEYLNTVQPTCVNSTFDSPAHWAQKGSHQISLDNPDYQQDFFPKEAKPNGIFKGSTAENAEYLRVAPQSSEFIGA

SMILES: O=C([O-])CN(CCCCCC(=O)Nc1ccc2ncnc(Nc3cccc(Br)c3)c2c1)Cc1ccccn1.[99Tc+].[C-]#[O+].[C-]#[O+].[C-]#[O+] [Compound 5b, fac-[^99mTc(NNO)(CO)3]]
- log D7.4 [1]: 3.27 ± 0.25
- Stability after incubation with excess of histidine and cysteine ([2]; 24 h, molar ratio 1/1000, HPLC): > 95%
- %RCP in Cysteine for 24 h ([2]; excess cysteine, 37 °C): 99 ± 1%
- %RCP in Histidine for 24 h ([2]; excess histidine, 37 °C): 99 ± 1%
- %RCP in PBS for 24 h ([3]; 0.1 M PBS, 37 °C, 24 h): 99 ± 2%
- Stability in reaction mixture and after isolation by HPLC ([3]; up to 24 h, room temperature or 37 °C): No decomposition
- IC50 (EGFR): 0.0261 µM
